# Literature values as cited in patent publication US20260048030A1, “REPARIXIN LIQUID SUSPENSIONS” (Dompe' Farmaceutici SPA, priority 2022, published 2026).
# System: hospitalized patients with severe COVID-19 pneumonia
# Settings: phase 2
smiles,measurement,value
"CC(C)Cc1ccc([C@@H](C)C(=O)NS(C)(=O)=O)cc1 [Reparixin, R-(−)-2-(4-isobutylphenyl)propionyl methansulfonamide]",Clinical outcomes compared with the standard of care,improved clinical outcomes
